Test results: patent US12479940B2, “Amide compound, polymerizable composition, cured material, and method of manufacturing cured material” (ADEKA CORPORATION, priority 2019, dated 2025)

From the text: As the polymerization initiator (the water-soluble polymerization initiator), N,N-bis(2-hydroxyethyl)butane-1-aminium=phenyl(2,4,6-trimethylbenzoyl)phosphinate represented by A3, 1-[4-(2-hydroxyethoxy)phenyl]-2-hydroxy-2-methyl-1-propan-1-one represented by A32, and N,N-bis(2-hydroxyethyl)butane-1-aminium=9-oxo-9H thioxanthene-4-carboxylate represented by A57 were used.

solubility in water | SMILES
≥ 1 mass % | Cc1cc(C)c(C(=O)P(=O)(O)c2ccccc2)c(C)c1 [A3, N,N-bis(2-hydroxyethyl)butane-1-aminium=phenyl(2,4,6-trimethylbenzoyl)phosphinate]
≥ 1 mass % | CC(C)(O)C(=O)c1ccc(OCCO)cc1 [A32, 1-[4-(2-hydroxyethoxy)phenyl]-2-hydroxy-2-methyl-1-propan-1-one]
